Reference: patent publication US20260263431A1, “ARYL HYDROCARBON RECEPTOR AGONIST PRODRUGS AND METHODS OF USE THEREOF” (Allianthera (Suzhou) Biopharmaceutical Co., Ltd., priority 2022, published 2026)

What was measured:
[1] = Caco-2 permeability assay (AB); format: in vitro ADME; conditions: human, apical to basolateral
Procedure: (§1) Compounds were tested under typical Caco-2 and S9 assay conditions.

S9 stability assay = format: in vitro ADME; conditions: read-out: mouse S9 Clint
Procedure: as §1

[2] = In vitro anaerobic metabolism in mouse fecal homogenate; format: in vitro ADME; conditions: 20 μM, anaerobic 37° C.
Procedure: (§2) The ability of the compounds of Formula (I) to release the active compound in the small or large intestine is assessed by introducing representative compounds of the disclosure to the contents of either a rodent small intestine or a rodent large intestine for up to 24 hours at 37° C. The amount of active drug released after the incubation period is determined by LC-MS/MS. Additional studies are conducted by incubating representative compounds of the disclosure with human fecal samples.
(§3) In Vitro Anaerobic Metabolism in Fecal Homogenates (vs. Control)
(§4) Compound 1 was dissolved in PBS (pH 7.4) to provide a 200 μM working solution. An aliquot of 50 μL volume was spiked to each 450 μL fecal homogenate incubation sample to provide an incubation concentration at 20 μM.
(§5) An estimated 1 g to 2 g wet weight of fecal material from healthy mice and rats (separately) was immediately collected in a pre-labelled 50 mL EP tube and stored at ambient room temperature. Based on the weight of each fecal material, a dilution with 0.01 M isotonic phosphate buffer (pH 7.0) is performed to provide a 12.5× diluted fecal homogenate. All fecal materials were stored at room temperature before being used in fecal homogenate preparation.
(§6) Under anaerobic conditions, each of the fecal specimen materials collected in 0.01 M isotonic phosphate buffer (pH 7.0) was homogenized by shaking and mixing with a stirrer. Each lot of the fecal homogenate material was added with an appropriate volume of 0.01 M isotonic phosphate buffer (pH 7.0) to provide fecal homogenate at 12.5× dilution. Under anaerobic condition in a nitrogen glove box purged with high purity nitrogen to ensure <1% oxygen level, the fecal homogenate was transferred to a clean container and diluted with 3 volumes of Brain Heart Infusion Broth (BHI) to provide a 50× diluted fecal homogenate. The diluted fecal homogenate matrix at an aliquot of 0.45 mL was dispensed into 2-mL EP tube, freshly prepared Compound 1 working solutions were then spiked to the fecal homogenate sample vials for incubation over the metabolic stability time-course.
(§7) Compound 1 was incubated at a target concentration of 20 μM in each fecal homogenate over a time course of 0, 1, 2, 4, 6 and 24 hours. Metabolic incubation at each time point was performed in triplicate. Incubation of the samples was performed in 2-mL EP tube. Into each pre-labeled sample vial, 50 μL of a Compound 1 working solution was accurately dispensed followed by the addition of the 0.45 mL pre-incubated fecal homogenate. Sample were capped, vortex mixed and incubated under an anaerobic environment at 37° C. At the end of each incubation time point, 1.0 mL of IS (Internal Standard) as a stop solvent was added to each sample with vortex mixed to stop the metabolic reactions. Samples at the 0-hour time point were pre-treated with the addition of IS stop solvent prior to the spiking of fecal homogenate and Compound 1. All samples were stored at −80° C. prior to LC-MS/MS assay. Samples are analyzed by LC-MS/MS. The MS detection is performed using a Sciex API 5500+ instrument. Each compound is analyzed by reverse phase HPLC.

[3] = In vitro anaerobic metabolism in rat fecal homogenate; format: in vitro ADME; conditions: 20 μM, anaerobic 37° C.
Procedure: as §2, §3, §4, §5, §6, §7

[4] = Stability in BHI broth (vehicle stability control); format: in vitro ADME; conditions: 20 μM
AHR = molecular target: T1, AHR (Homo sapiens, UniProt P35869); assay: AHR activity of the metabolite (reEC50 / abEC50); format: cell-based; conditions: relative to tapinarof at 1 μM
T1 sequence (P35869 11-848): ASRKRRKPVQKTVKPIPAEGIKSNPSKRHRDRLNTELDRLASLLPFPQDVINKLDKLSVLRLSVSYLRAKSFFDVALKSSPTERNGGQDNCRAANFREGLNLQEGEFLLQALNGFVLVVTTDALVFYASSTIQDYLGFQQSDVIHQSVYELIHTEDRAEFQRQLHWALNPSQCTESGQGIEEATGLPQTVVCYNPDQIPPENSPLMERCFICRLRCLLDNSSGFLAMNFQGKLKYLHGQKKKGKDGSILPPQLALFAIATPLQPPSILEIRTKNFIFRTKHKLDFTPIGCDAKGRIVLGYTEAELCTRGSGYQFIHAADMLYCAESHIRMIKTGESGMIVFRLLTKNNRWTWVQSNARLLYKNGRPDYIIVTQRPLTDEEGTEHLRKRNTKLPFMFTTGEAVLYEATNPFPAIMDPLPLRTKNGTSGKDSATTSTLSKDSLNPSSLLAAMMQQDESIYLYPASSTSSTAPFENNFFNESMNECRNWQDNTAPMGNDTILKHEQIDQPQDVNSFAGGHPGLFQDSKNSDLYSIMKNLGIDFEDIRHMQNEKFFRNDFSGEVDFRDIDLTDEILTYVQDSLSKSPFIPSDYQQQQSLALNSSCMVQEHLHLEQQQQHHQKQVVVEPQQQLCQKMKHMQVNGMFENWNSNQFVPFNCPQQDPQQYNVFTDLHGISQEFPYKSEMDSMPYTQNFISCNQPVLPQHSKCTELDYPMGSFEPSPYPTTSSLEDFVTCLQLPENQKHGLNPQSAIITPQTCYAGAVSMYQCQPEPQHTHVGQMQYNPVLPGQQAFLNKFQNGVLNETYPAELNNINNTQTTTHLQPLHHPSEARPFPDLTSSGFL
Procedure: The AHR activity of the metabolite is measured as AHR reEC50 (as % activation to tapinarof at 1 μM)—of 166.1 nM (69.5%) and a AHR abEC50 of 241.5 nM.

Row | SMILES | Papp A→B [1] | intrinsic clearance in mouse S9 (S9 stability assay) | other results
1 | CC(C)c1ncc(/C=C/c2ccccc2)cc1OS(=O)(=O)O [Compound 1, {2-isopropyl-5-[(E)-2-phenylethenyl]pyridin-3-yl}oxidanesulfonic acid] | 0.44 ×10⁻⁶ cm/s | 4.91 µL/min/mg | Compound 1 Conc. Average ([2]; 0 hr): 23.7 µM; Compound 1 Conc. Average ([2]; 1 hr): 21.8 µM; Compound 1 Conc. Average ([2]; 2 hr): 21.6 µM; Compound 1 Conc. Average ([2]; 4 hr): 19.2 µM; Compound 1 Conc. Average ([2]; 6 hr): 14.75 µM; Compound 1 Conc. Average ([2]; 24 hr): 0.0738 µM; Compound 1 Conc. Average ([3]; 0 hr): 25.05 µM; Compound 1 Conc. Average ([3]; 1 hr): 21.3 µM; Compound 1 Conc. Average ([3]; 2 hr): 20.55 µM; Compound 1 Conc. Average ([3]; 4 hr): 14.2 µM; Compound 1 Conc. Average ([3]; 6 hr): 3.02 µM; Compound 1 Conc. Average ([3]; 24 hr): 0.0657 µM; Compound 1 Conc. Average ([4]; 0 hr): 23.2 µM; Compound 1 Conc. Average ([4]; 24 hr): 21.9 µM
2 | CC(C)c1c(O)cc(-c2cc3ccccc3cn2)cc1OS(=O)(=O)O [Compound 2, [3-hydroxy-2-isopropyl-5-(isoquinolin-3-yl)phenyl]oxidanesulfonic acid] | – | 1.18 µL/min/mg | –
3 | CC(C)c1c(O)cc(-c2cnc3ccccc3c2)cc1OS(=O)(=O)O [Compound 3, [3-hydroxy-2-isopropyl-5-(quinolin-3-yl)phenyl]oxidanesulfonic acid] | 0.29 ×10⁻⁶ cm/s | – | –
4 | CC(C)c1c(OP(=O)(O)O)cc(-c2cnc3ccccc3c2)cc1OP(=O)(O)O [Compound 4, 2-isopropyl-3-(phosphonooxy)-5-(quinolin-3-yl)phenoxyphosphonic acid] | < 0.2 ×10⁻⁶ cm/s | 3.43 µL/min/mg | –
5 | CC(C)c1ncc(/C=C/c2ccccc2F)cc1OS(=O)(=O)O [Compound 5, {5-[(E)-2-(2-fluorophenyl)ethenyl]-2-isopropylpyridin-3-yl}oxidanesulfonic acid] | 0.44 ×10⁻⁶ cm/s | 2.64 µL/min/mg | –
6 | CC(C)c1ncc(/C=C/c2ccc(F)cc2)cc1OS(=O)(=O)O [Compound 6, {5-[(E)-2-(4-fluorophenyl)ethenyl]-2-isopropylpyridin-3-yl}oxidanesulfonic acid] | 0.62 ×10⁻⁶ cm/s | 1.26 µL/min/mg | –
7 | CC(C)c1c(O)cc(-c2cc(F)c3cnc(N)nc3c2)cc1OS(=O)(=O)O [Compound 7, [5-(2-amino-5-fluoroquinazolin-7-yl)-3-hydroxy-2-isopropylphenyl]oxidanesulfonic acid] | 0.37 ×10⁻⁶ cm/s | – | –
8 | CC(C)c1c(O)cc(-c2ccc3cc(F)ccc3n2)cc1OS(=O)(=O)O [Compound 8, [5-(6-fluoroquinolin-2-yl)-3-hydroxy-2-isopropylphenyl]oxidanesulfonic acid] | – | 0.02 µL/min/mg | –
9 | CCCc1c(F)cc(/C=C/c2ccccc2)cc1OS(=O)(=O)O [Compound 9, {3-fluoro-5-[(E)-2-phenylethenyl]-2-propylphenyl}oxidanesulfonic acid] | 0.29 ×10⁻⁶ cm/s | 0.7 µL/min/mg | –
10 | CC(C)c1c(F)cc(/C=C/c2ccccc2)cc1OS(=O)(=O)O [Compound 10, {3-fluoro-2-isopropyl-5-[(E)-2-phenylethenyl]phenyl}oxidanesulfonic acid] | 0.25 ×10⁻⁶ cm/s | 0.47 µL/min/mg | –
11 | Cc1ccnc2cc(-c3cc(F)c(C(C)C)c(OP(=O)(O)O)c3)ccc12 [Compound 11, 3-fluoro-2-isopropyl-5-(4-methylquinolin-7-yl)phenyl dihydrogen phosphate] | – | 0.68 µL/min/mg | –
12 | CC(C)c1ncc(/C=C/c2ccccc2)cc1O [metabolite] | – | – | % activation to tapinarof at 1 μM (AHR): 69.5%
